The values that follow come from patent US20200147217A1, “FUCOIDAN-BASED THERAGNOSTIC COMPOSITION” (National Cancer Center, priority 2018, published 2020).

Data set [1] concerns HT1080 human fibrosarcoma-transplanted animal model. The data set is described as follows: Tumor-targeting fluorescence imaging after intravenous injection. It is filed as in vivo, mice. The method, then: In Example 11, in order to analyze a tumor-targeting effect of a photosensitizer-fucoidan conjugate, an experiment was performed, in which the conjugate is intravenously administered to an experimental animal and a fluorescence image is taken.
Phosphate buffer (negative control), a free photosensitizer (free Ce6), or a photosensitizer-fucoidan conjugate (Ce6-Fucoidan) was injected intravenously, respectively, into an HT1080 human fibrosarcoma-transplanted animal model, and fluorescence images were taken with an IVIS imaging machine at 5 minutes and 24 hours after the injection (λex 660/20 nm, λem 710/40 nm). […] In FIG. 19B, fluorescence image signal values of the tumor tissues are quantified to compare the amount of photosensitizer accumulated in the tumor tissues. […] FIG. 19C illustrates results obtained by allowing mice to be euthanized, obtaining spleen, kidney, liver, and lung tissues, and identifying ex vivo fluorescence images thereof. […] FIG. 19D illustrates results obtained by freezing the obtained tumor tissues to prepare frozen sections, and then identifying, with a confocal microscope, a degree of penetration of the photosensitizer into each tumor tissue.

Data set [2] relates to HT1080 subcutaneous xenograft tumor. Put plainly: Tumor growth inhibition in HT1080 xenograft model. Type of data set: in vivo, Nude mice (Balb/c nude). The settings on record: 5 mg Ce6 equivalent/kg i.v., +PDT 670 nm, 20 J/cm^2. The method, then:
A photodynamic therapeutic effect caused by a photosensitizer-fucoidan conjugate was evaluated in a tumor-transplanted animal model. A tumor model into which HT1080 cancer cells are subcutaneously xenografted was injected intravenously with a free photosensitizer (free Ce6) or Ce6-Fucoidan, and light irradiation (PDT) was performed on the tumor site using a 670 nm laser. To evaluate an antitumor effect, the tumor size was measured daily for 10 days, and differences between the respective groups were analyzed. For the control experimental animals, phosphate buffer containing no photosensitizer was injected intravenously.
HT1080, a human fibrosarcoma cell line, was obtained from the American Type Culture Collection (ATCC, USA). The HT1080 cells were cultured, under conditions of 37° C., 5% carbon dioxide, and standard humidity, in Eagle's Minimum Essential Media (MEM) medium supplemented with 10% fetal bovine serum (FBS) and 1% penicillin/streptomycin. Nude mice (Balb/c nude) were subcutaneously injected with HT1080 cancer cells as much as 5×10^6 cells/100 μL, and after 5 to 7 days, it was checked whether subcutaneous tumors are produced. […] The tumor size was measured until Day 10 to prepare a tumor growth graph, and the tumor size was compared between the respective groups. […]

Consider chlorin e6 [free Ce6], for which, in data set [1] (confocal microscope, 24 hours after administration), the “fluorescence signal caused by the photosensitizer in tumor frozen sections” value is recorded as “hardly observed”. The “fluorescence image signal in tumor tissues” value in data set [1] (intravenous, 24 hours after injection, IVIS) was “no fluorescence image signal even in tumor tissues”. Also, the “retention in the body” value in data set [1] (intravenous, up to 24 hours, fluorescence imaging) is recorded as “hardly remains in the body at 24 hours”. In addition, in data set [2], the “tumor growth inhibitory effect compared with the control” value is on record as “no statistically significant tumor growth inhibitory effect”.
